Assay results reported in the NIST ThermoML archive (doi:10.1016/j.jct.2015.06.010).
Numbers after ± are expanded uncertainties.

Details: 101.33 kPa, Liquid; for electrical conductivity: Alternating current cell with electrodes; for viscosity: Concentric cylinders viscometry; for mass density: Vibrating tube method

Cn1cc[n+](CC#N)c1.O=S(=O)([N-]S(=O)(=O)C(F)(F)F)C(F)(F)F
Details	electrical conductivity [S/m]	mass density [kg/m3]	viscosity [mPa·s]
283.15 K	0.0283 ± 0.0006	1625.9 ± 1.2	1140 ± 50
288.15 K	0.0439 ± 0.001	1620.5 ± 1.2	708.6 ± 28
293.15 K	0.0648 ± 0.0014	1615 ± 1.2	463.4 ± 16
298.15 K	0.0919 ± 0.0019	1609.7 ± 1.2	315.5 ± 10
303.15 K	0.129 ± 0.0027	1604.6 ± 1.2	222.8 ± 6.4
308.15 K	0.173 ± 0.0036	1599.6 ± 1.2	162.4 ± 4.2
313.15 K	0.225 ± 0.005	1594.6 ± 1.2	121.7 ± 2.9
318.15 K	0.285 ± 0.006	1589.8 ± 1.2	93.56 ± 2.1
323.15 K	0.36 ± 0.007	1584.8 ± 1.2	73.61 ± 1.6
328.15 K	0.441 ± 0.009	1579.9 ± 1.2	58.99 ± 1.2
333.15 K	0.536 ± 0.011	1575.1 ± 1.2	47.93 ± 1
338.15 K	0.644 ± 0.013	1570.2 ± 1.2	39.7 ± 0.84
343.15 K	0.756 ± 0.015	1565.4 ± 1.2	33.27 ± 0.7
348.15 K	0.878 ± 0.018	1560.6 ± 1.2	28.11 ± 0.59
353.15 K	1.01 ± 0.02	1555.8 ± 1.2	24.06 ± 0.51

Cn1cc[n+](CCO)c1.O=S(=O)([N-]S(=O)(=O)C(F)(F)F)C(F)(F)F
Details	electrical conductivity [S/m]	mass density [kg/m3]	viscosity [mPa·s]
283.15 K	0.132 ± 0.0028	1588.6 ± 1.2	213.4 ± 6
288.15 K	0.179 ± 0.0037	1583.6 ± 1.2	153.7 ± 3.9
293.15 K	0.237 ± 0.005	1578.6 ± 1.2	114.1 ± 2.7
298.15 K	0.305 ± 0.006	1573.7 ± 1.2	86.89 ± 1.9
303.15 K	0.387 ± 0.008	1568.8 ± 1.2	67.66 ± 1.5
308.15 K	0.481 ± 0.01	1563.9 ± 1.2	53.88 ± 1.1
313.15 K	0.589 ± 0.012	1559.1 ± 1.2	43.52 ± 0.92
318.15 K	0.704 ± 0.014	1554.2 ± 1.2	35.85 ± 0.76
323.15 K	0.83 ± 0.017	1549.4 ± 1.2	29.83 ± 0.63
328.15 K	0.967 ± 0.02	1544.6 ± 1.2	25.2 ± 0.53
333.15 K	1.11 ± 0.022	1539.8 ± 1.2	21.52 ± 0.45
338.15 K	1.28 ± 0.026	1535 ± 1.2	18.46 ± 0.39
343.15 K	1.45 ± 0.029	1530.2 ± 1.2	16.08 ± 0.34
348.15 K	1.63 ± 0.033	1525.5 ± 1.2	14.06 ± 0.3
353.15 K	1.81 ± 0.037	1520.7 ± 1.2	12.44 ± 0.26
